Like-named read-outs stand apart in the source and are kept apart here.
Key:
[1] = test system: IL-23-stimulated STAT-dependent luciferase reporter in Kit225 T cells; experiment: Kit225 T cell assay, IL-23 stimulated STAT-dependent luciferase reporter; type: cell-based, human; details: Kit225 T cells, 20 ng/mL human recombinant IL-23, 5-6 hours, luciferase; read-out: IL23 (Kit225 T Cell Inhibition Data)
Outline: (§1)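 Stimulus was either 200 U/mL human recombinant IFNα or 20 ng/mL IL-23, applied for 5-6 h to reporter-bearing Kit225 T cells grown in RPMI/10% FBS. Luciferase expression then quantified by luminescent assay.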

[2] = test system: IFNα-stimulated STAT-dependent luciferase reporter in Kit225 T cells; experiment: Kit225 T cell assay, IFNα stimulated STAT-dependent luciferase reporter; type: cell-based, human
Outline: as §1

[3] = target: T1, recombinantly expressed His-tagged protein corresponding to amino acids 575-869 of human Tyk2 (Homo sapiens, UniProt P29597); experiment: Probe displacement assay (scintillation proximity, [3H] probe); type: binding; details: 2.5 nM Tyk2 (575-869), 40 nM radiolabeled probe, 30 minutes at room temperature
T1 construct: corresponding to amino acids 575-869 of human Tyk2; made in house
Method: The probe displacement assay is conducted as follows: In a […], test compounds along with recombinantly expressed His-tagged protein corresponding to amino acids 575-869 of human Tyk2 (sequence shown below) at 2.5 nM, 40 nM ((R)-N-(1-(3-(8-methyl-5-(methylamino)-8H-imidazo[4,5-d]thiazolo[5,4-b]pyridin-2-yl)phenyl)ethyl)-2-([^3H]methylsulfonyl)benzamide) (preparation described below) and 80 μg/mL Copper His-Tag scintillation proximity assay beads (Perkin Elmer, Catalog #RPNQ0095) in 50 mM HEPES, pH 7.5, containing 100 μg/mL bovine serum albumin and 5% DMSO were incubated for 30 minutes at room temperature. The amount of radiolabeled probe (preparation described below) bound to Tyk2 was then quantified by scintillation counting, and the inhibition by the test compound calculated by comparison to wells either with no inhibitor (0% inhibition) or without Tyk2 (100% inhibition).
Protein Sequence of recombinant Hig-tagged Tyk2 (575-869):
The preparation of radiolabeled probe, (R)-N-(1-(3-(8-methyl-5-(methylamino)-8H-imidazo[4,5-d]thiazolo[5,4-b]pyridin-2-yl)phenyl)ethyl)-2-([^3H]methylsulfonyl)benzamide, was performed as described below: […]

[4] = Kit225 T cells, 200 U/mL human recombinant IFNα, 5-6 hours, luciferase, read-out: IFNα (Kit225 T Cell Inhibition Data)

T1 sequence (P29597 575-869): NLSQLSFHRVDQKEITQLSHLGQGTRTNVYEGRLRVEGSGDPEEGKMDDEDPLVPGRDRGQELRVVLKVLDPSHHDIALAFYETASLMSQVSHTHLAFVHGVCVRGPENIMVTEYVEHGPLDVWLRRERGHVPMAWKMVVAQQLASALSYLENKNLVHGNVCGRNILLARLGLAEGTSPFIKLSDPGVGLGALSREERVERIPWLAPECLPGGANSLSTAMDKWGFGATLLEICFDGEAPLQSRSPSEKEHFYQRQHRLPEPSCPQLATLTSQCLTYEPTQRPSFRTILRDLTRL

| SMILES | IC50 [1] [µM] | IC50 [2, 4] [µM] | EC50 [3] [µM] | IC50 ([2]; Homo sapiens, KIT225, read-out: IFNα (Kit225 T Cell Inhibition Data)) [µM] |
| --- | --- | --- | --- | --- |
| CNC(=O)c1cnc(Nc2ccc3ccccc3n2)cc1Nc1ccccc1S(C)(=O)=O [Example 2] | 0.0574 | 0.03 | 0.0132 |  |
| CNC(=O)c1cnc(Nc2cncc(C)n2)cc1Nc1ccccc1S(C)(=O)=O [Example 42] | 0.26 | 0.14 | 0.0082 |  |
| CNC(=O)c1cnc(Nc2cc(C#N)ccn2)cc1Nc1ccc(S(C)(=O)=O)cc1OC [Example 43] | 0.173 | 0.87 | 0.0687 |  |
| CNC(=O)c1cnc(Nc2ccc(S(C)(=O)=O)cn2)cc1Nc1ccccc1S(C)(=O)=O [Example 61] | 3.53 | 1.03 | 0.0164 |  |
| CNC(=O)c1cnc(Nc2ccc(F)cn2)cc1Nc1ccccc1[S+](C)[O-] (centres unmarked) [Example 62] | 0.898 | 1.29 | 0.0845 |  |
| CNC(=O)c1cnc(Nc2ccc(F)cn2)cc1Nc1ccccc1CCO [Example 66] | 1.77 | 3.17 | 0.0148 |  |
| CNC(=O)c1cnc(Nc2cccc(OC)n2)cc1Nc1ccccc1C(N)=O [Example 73] | 0.506 | 0.29 | 0.012 |  |
| CNC(=O)c1cnc(Nc2ccc(CO)cn2)cc1Nc1ccccc1C(N)=O [Example 79] | 4.1 | 1.85 | 0.0055 |  |
| CNC(=O)c1cnc(Nc2ccc(Cl)cn2)cc1Nc1ccccc1C(N)=O [Example 80] | 0.32 | 0.46 | 0.0044 |  |
| CNC(=O)c1cnc(Nc2ccc(O)cn2)cc1Nc1ccccc1C(N)=O [Example 81] | 5.58 | 4.49 | 0.0227 |  |
| CNC(=O)c1cnc(Nc2ccc3ccccc3n2)cc1Nc1ccccc1C(N)=O [Example 87] | 0.257 | 0.16 | 0.0038 |  |
| CNC(=O)c1cnc(Nc2cc(CO)ccn2)cc1Nc1ccccc1C(N)=O [Example 94] | 3.56 | 3.43 | 0.0095 |  |
| CNC(=O)c1cnc(Nc2ccc(N3CCOCC3)cn2)cc1Nc1ccc(Cl)cc1OC [Example 104] | 0.246 | 0.05 | 0.0177 |  |
| CNC(=O)c1cnc(Nc2ccc(N3CCCC3=O)cn2)cc1Nc1ccc(Cl)cc1OC [Example 107] | 0.189 | 0.12 | 0.0324 |  |
| CCc1cccc(Nc2cc(Nc3ccc(Cl)cc3OC)c(C(=O)NC)cn2)n1 [Example 125] | 9.68 | 9.97 | 0.436 |  |
| CNC(=O)c1cnc(Nc2ccc(C)cn2)cc1Nc1cc(F)cc(F)c1OC [Example 128] | 0.335 | 0.14 | 0.0213 |  |
| CNC(=O)c1cnc(Nc2cc(C#N)ccn2)cc1Nc1cc(F)cc(F)c1OC [Example 134] | 0.314 | 0.13 | 0.0099 |  |
| CNC(=O)c1cnc(Nc2cc(Cl)ccn2)cc1Nc1cc(F)cc(F)c1OC [Example 144] | 0.517 | 0.23 | 0.0461 |  |
| CNC(=O)c1cnc(Nc2ccc(C#N)c(C)n2)cc1Nc1ccc(F)cc1OC [Example 152] | 0.499 | 0.37 | 0.0406 |  |
| CNC(=O)c1cnc(Nc2cccc(-n3ccccc3=O)n2)cc1Nc1ccc(F)cc1OC [Example 165] | 10.7 | 6.65 | 0.779 |  |
| CNC(=O)c1cnc(Nc2cc(C#N)ccn2)cc1Nc1cccc(F)c1C(N)=O [Example 176] | 1.04 | 1.02 | 0.0188 |  |
| CNC(=O)c1cnc(Nc2ccc(F)cn2)cc1Nc1cccc2ccccc12 [Example 188] | 4.3 | 6.47 | 0.557 |  |

| SMILES | IC50 [1] [µM] | IC50 [2, 4] [µM] | EC50 [3] [µM] | IC50 ([2]; Homo sapiens, KIT225, read-out: IFNα (Kit225 T Cell Inhibition Data)) [µM] |
| --- | --- | --- | --- | --- |
| CNC(=O)c1cnc(Nc2ccc(F)cn2)cc1Nc1ccc(-c2ccccc2)cc1 [Example 194] | 3.22 | 8.66 | 0.349 |  |
| CNC(=O)c1cnc(Nc2ccc(F)cn2)cc1Nc1cc(Cl)ccc1OC [Example 203] | 1.46 | 1.17 | 0.0535 |  |
| CNC(=O)c1cnc(Nc2ccc(F)cn2)cc1Nc1cc(F)cc(F)c1OC [Example 205] | 0.372 | 0.18 | 0.0251 |  |
| CNC(=O)c1cnc(Nc2ccc(F)cn2)cc1Nc1ccc(N2CCOCC2)cc1 [Example 211] | 4.27 | 3.15 | 0.246 |  |
| CNC(=O)c1cnc(Nc2ccc(N3CCOCC3)cn2)cc1Nc1ccccc1C [Example 217] | 3.31 | 1.48 | 0.291 |  |
| CNC(=O)c1cnc(Nc2ccc(N3CCOCC3)cn2)cc1Nc1ccccc1CCO [Example 224] | 5.61 | 4.6 | 0.597 |  |
| CNC(=O)c1cnc(Nc2ccc(N3CCOCC3)cn2)cc1Nc1ccccc1SC [Example 226] | 0.151 | 0.14 | 0.0201 |  |
| CNC(=O)c1cnc(Nc2ccc(N3CCOCC3)cn2)cc1Nc1ccccc1OC(F)F [Example 228] | 0.144 | 0.14 | 0.0367 |  |
| CNC(=O)c1ccc(Nc2cc(Nc3ccc(F)cn3)ncc2C(=O)NC)c(OC)c1 [Example 237] | 0.47 | 0.46 | 0.0291 |  |
| CNC(=O)c1cnc(Nc2ccc(F)cn2)cc1Nc1ccc(C(=O)NCCO)cc1OC [Example 238] | 4.25 | 2.36 | 0.0063 |  |
| CNC(=O)c1cnc(Nc2ccc(C(=O)NC3CC3)cn2)cc1Nc1ccc(Cl)cc1OC [Example 261] | 2.18 | 1.37 | 0.155 |  |
| CNC(=O)c1cnc(Nc2cc(C(=O)NCCOC)ccn2)cc1Nc1cc(F)cc(F)c1OC [Example 266] | 0.312 | 0.16 | 0.0065 |  |
| CNC(=O)c1cnc(Nc2ccc3ccccc3n2)cc1NC1CCCC1 [Example 283] |  |  | 0.633 | 12.5 |
| CNC(=O)c1cnc(Nc2ccc3ccccc3n2)cc1N[C@@H]1CCCC[C@@H]1C(N)=O [Example 286] | 4.22 | 1.98 | 0.106 |  |
| CNC(=O)c1cnc(Nc2ccc3ccccc3n2)cc1NC1CCCC1C(N)=O (centres unmarked) [Example 289] | 12.5 | 7.3 | 0.495 |  |
| [2H]C([2H])([2H])NC(=O)c1cnc(Nc2ccc(F)cn2)cc1Nc1ccccc1S(C)(=O)=O [Example 298] | 0.11 | 0.06 | 0.0065 |  |
| CNC(=O)c1cnc(Nc2ccc(F)cn2)cc1Nc1ccccc1S(=O)(=O)N(C)C [Example 302] | 4.06 | 2.09 | 0.182 |  |
| CNC(=O)c1cnc(Nc2ccc(F)cn2)cc1Nc1cccc(C(N)=O)c1OC [Example 315, 4-((3-carbamoyl-2-methoxyphenyl)amino)-6-((5-fluoropyridin-2-yl)amino)-N-methylnicotinamide] | 0.09 | 0.08 | 0.005 |  |
| CNC(=O)c1cnc(Nc2cc(C)c(F)cn2)cc1Nc1cccc(C(=O)NCC2CCCCC2)c1OC [Example 325] | 0.46 | 0.21 | 0.0764 |  |
| CNC(=O)c1cnc(Nc2cc(C)c(F)cn2)cc1Nc1cccc(C(=O)NCc2ccccn2)c1OC [Example 327] | 0.1 | 0.01 | 0.0153 |  |
| CCC(CC)CNC(=O)c1cccc(Nc2cc(Nc3cc(C)c(F)cn3)ncc2C(=O)NC)c1OC [Example 334] | 0.31 | 0.23 | 0.014 |  |
